Source: BindingDB's records for doi:10.7270/Q27W69N8 (Srmlsc, 2009)

These compounds were tested against T1, M17 leucyl aminopeptidase (Plasmodium falciparum (isolate 3D7), UniProt Q8IL11) (assay: P. falciparum M17LAP inhibitors, primary screen, biochemical, fluorogenic H-Leu-NHMec substrate, 1536-well (AID 1619)).
T1 sequence (Q8IL11 whole entry): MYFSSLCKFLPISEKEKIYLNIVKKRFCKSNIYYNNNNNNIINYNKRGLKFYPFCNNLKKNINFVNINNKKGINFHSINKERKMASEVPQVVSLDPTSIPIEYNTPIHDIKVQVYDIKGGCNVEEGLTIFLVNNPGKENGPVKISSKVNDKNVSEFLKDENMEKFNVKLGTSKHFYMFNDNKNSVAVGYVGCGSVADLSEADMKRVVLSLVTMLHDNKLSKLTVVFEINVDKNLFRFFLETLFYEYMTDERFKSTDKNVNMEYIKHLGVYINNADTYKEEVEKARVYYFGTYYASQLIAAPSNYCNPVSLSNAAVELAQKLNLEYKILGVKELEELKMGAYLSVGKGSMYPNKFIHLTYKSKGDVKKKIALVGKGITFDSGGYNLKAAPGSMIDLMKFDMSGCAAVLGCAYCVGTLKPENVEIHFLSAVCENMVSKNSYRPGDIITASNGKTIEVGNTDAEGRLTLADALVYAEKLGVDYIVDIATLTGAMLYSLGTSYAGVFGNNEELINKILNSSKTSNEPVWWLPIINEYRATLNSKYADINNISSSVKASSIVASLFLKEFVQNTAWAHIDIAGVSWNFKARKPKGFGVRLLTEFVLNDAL
For `O=C1c2ccccc2C(=O)C1C1=NC(C(=O)O)c2c1c(O)n(-c1ccccc1)c2O` (stereo unspecified) [SMR000168620], the IC50 was 68 µM. `N#CC1C(=N)Oc2[nH]nc(-c3ccccc3)c2C1c1cccnc1` (stereo unspecified) [MLS000030179] showed an IC50 of 60.4 µM. `N#CC1C(=N)Oc2[nH]nc(-c3ccccc3)c2C1c1ccsc1` (stereo unspecified) was tested, and the IC50 was 64.5 µM. `CC(=NNC(=O)Cc1c(C)[nH][nH]c1=O)c1cccs1` [SMR000305285] showed an IC50 of 3.56 µM. In the case of `CC(=NNC(=O)Cc1c(C)[nH][nH]c1=O)c1ccco1` [MLS000723689], the IC50 is reported as 12.3 µM. Work on `Cc1ccc(CN=Nc2ccc(C(=O)O)cc2)s1` [SMR000364894] yielded an IC50 of 20.4 µM. `CN(C)c1ccc(/N=N/c2ccccc2C(=O)OCC(=O)N2CCCC2)cc1` [MLS000374806] showed an IC50 of 9.23 µM. In the case of `O=C(O)c1cc(N=NCc2ccc(OCc3ccccc3)cc2)ccc1Cl` [SMR000364895], the IC50 is reported as 20 µM. In the case of `CCOc1ccc(-n2c(O)cc(SCCN)c2O)cc1` [3-(2-Amino-ethylsulfanyl)-1-(4-ethoxy-phenyl)-pyrrolidine-2,5-dione], the IC50 is reported as 23.6 µM. For `O=NCc1ccc(OCc2ccccc2)c(C(=O)O)c1` [5-(hydroxyiminomethyl)-2-phenylmethoxybenzoic acid], the IC50 was 16.4 µM. Work on `COc1cccc(C=NNC(=O)Cc2c(C)[nH][nH]c2=O)c1OC` [SMR000147373] yielded an IC50 of 23.5 µM. With `CCOc1ccccc1C1c2c(-c3ccccc3)noc2N=C(N)C1C#N` (stereo unspecified) [6-amino-4-(2-ethoxyphenyl)-3-phenyl-2,4-dihydroisoxazolo[5,4-b]pyridine-5-carbonitrile] the IC50 was 52.7 µM. `Cc1ccc(Nc2nnc(SCC(=O)C(C#N)c3nc4ccccc4[nH]3)s2)c(C)c1` (stereo unspecified) [2-(1,3-dihydrobenzimidazol-2-ylidene)-4-[[5-(2,4-dimethylanilino)-1,3,4-thiadiazol-2-yl]thio]-3-oxobutanenitrile] gave an IC50 of 6.03 µM. `CN(C)c1ccc(/N=N/c2ccccc2C(=O)OCC(=O)N(C)C2CCCCC2)cc1` [[2-[cyclohexyl(methyl)amino]-2-oxidanylidene-ethyl] 2-[[4-(dimethylamino)phenyl]diazenyl]benzoate] gave an IC50 of 15.2 µM. Work on `COc1ccc(CN=Nc2ccc(C(=O)O)cc2)cc1Br` [4-[2-[(3-bromo-4-methoxyphenyl)methylidene]hydrazinyl]benzoic acid] yielded an IC50 of 23.4 µM. `CC(C)(C)c1ccc(CN=Nc2ccc(C(=O)O)cc2)cc1` showed an IC50 of 13.3 µM. With `Cc1[nH][nH]c(=O)c1CCC(=O)NN=Cc1ccc(Cl)c(Cl)c1` the IC50 was 15 µM. In the case of `CC(CCC1CC(C)OC1=O)N=Nc1nc(-c2ccccc2)cs1` (stereo unspecified) [SMR000204131], the IC50 is reported as 30.8 µM. `COc1ccc(CN=Nc2nc(O)c(CC(=O)O)s2)cc1OCc1ccc(Cl)cc1` [2-[2-[2-[[3-[(4-chlorophenyl)methoxy]-4-methoxy-phenyl]methylidene]hydrazinyl]-4-oxidanylidene-1,3-thiazol-5-yl]ethanoic acid] was tested, and the IC50 was 20.3 µM. `Cc1ccc(-c2n[nH]c3c2C(c2ccsc2)C(C#N)C(=N)O3)cc1` (stereo unspecified) [SMR000143666] showed an IC50 of 11.3 µM. `O=C1C=C/C(=C/NN2C(=O)C3C4C=CC(CC4)C3C2=O)C=C1O` (stereo unspecified) [SMR000207592] was tested, and the IC50 was 34.3 µM. `Cc1nc2c([nH]1)C1(CCN(Cc3ccccc3)CC1)C(C#N)C(=N)O2` (stereo unspecified) [MLS000047918] showed an IC50 of 63.2 µM. Work on `CC(C)CC1c2c(-c3ccccc3)n[nH]c2OC(=N)C1C#N` (stereo unspecified) [MLS000121961] yielded an IC50 of 33.7 µM. For `CC(=NNC(=O)CCc1c(C)[nH][nH]c1=O)c1ccccc1` [3-(3-methyl-5-oxidanylidene-1,4-dihydropyrazol-4-yl)-N-(1-phenylethylideneamino)propanamide], the IC50 was 36.6 µM. In the case of `Cc1ccc(-c2n[nH]c3c2C(C)C(C#N)C(=N)O3)cc1` (stereo unspecified) [6-amino-4-methyl-3-(4-methylphenyl)-2,4-dihydropyrano[2,3-c]pyrazole-5-carbonitrile], the IC50 is reported as 16.3 µM. Work on `CCOC(O)c1oc2c(c(=O)c1-c1nncn1-c1ccccc1)C=CC(=O)C2=O` (stereo unspecified) [ethyl 7,8-dihydroxy-4-oxo-3-(4-phenyl-4H-1,2,4-triazol-3-yl)-4H-chromene-2-carboxylate] yielded an IC50 of 6.58 µM. `COc1cc(CN=Nc2ccc(Cl)c(C(=O)O)c2)ccc1OC(=O)c1cccs1` gave an IC50 of 55.5 µM. Compound `CCOc1ccccc1-n1c(O)cc(Sc2nnc(-c3ccccc3)[nH]2)c1O` [1-(2-ethoxyphenyl)-3-[(5-phenyl-4H-1,2,4-triazol-3-yl)thio]-2,5-pyrrolidinedione] has an IC50 of 8.97 µM. With `CC(=NNC(=O)CCc1c(C)[nH][nH]c1=O)c1ccc([N+](=O)[O-])cc1` the IC50 was 80.6 µM. With `CCOc1ccc(-n2c(O)cc(Sc3nnc(-c4ccccc4)[nH]3)c2O)cc1` [MLS000765380] the IC50 was 11.1 µM. Compound `COc1ccccc1C=CC=NNC(=O)CCc1c(C)[nH][nH]c1=O` [3-(3-Methyl-5-oxo-4,5-dihydro-1H-pyrazol-4-yl)-propionic acid [(E)-3-(2-methoxy-phenyl)-prop-2-en-(E)-ylidene]-hydrazide] has an IC50 of 57.2 µM. `Cc1ccc(S(=O)(=O)Oc2cccc(-n3c(O)c4c(c3O)CC=CC4)c2)cc1` [SMR000197106] gave an IC50 of 49.6 µM. `O=C(O)c1ccc(N=NCc2ccc(C(F)(F)F)cc2)cc1` [sulfuric acid;4-[(N'E)-N'-[4-(trifluoromethyl)benzylidene]hydrazino]benzoic acid] was tested, and the IC50 was 46.3 µM. With `N#CC1C(=N)Oc2[nH]nc(-c3ccc(F)cc3)c2C1c1cccnc1` (stereo unspecified) [MLS000043841] the IC50 was 61.2 µM. Compound `COc1cccc(C=NNC(=O)Cc2c(C)[nH][nH]c2=O)c1O` [N'-[(E)-(5-methoxy-6-oxocyclohexa-2,4-dien-1-ylidene)methyl]-2-(3-methyl-5-oxo-1,4-dihydropyrazol-4-yl)acetohydrazide] has an IC50 of 92.1 µM. With `Cc1cc(-c2n[nH]c3c2C(c2cccc(O)c2)C(C#N)C(=N)O3)c(C)s1` (stereo unspecified) [SMR000136653] the IC50 was 52.8 µM.
